These results are taken from patent publication US20060009493A1, “Indolinone hydrazides as c-Met inhibitors” (Sugen, Inc., priority 2003, published 2006).

This test deals with T1, GST fusion protein containing the Met kinase domain (Homo sapiens, UniProt P08581).
T1 construct: Purified GST fusion protein containing the Met kinase domain, Sugen, Inc
T1 sequence (P08581 1078-1345 limits assumed): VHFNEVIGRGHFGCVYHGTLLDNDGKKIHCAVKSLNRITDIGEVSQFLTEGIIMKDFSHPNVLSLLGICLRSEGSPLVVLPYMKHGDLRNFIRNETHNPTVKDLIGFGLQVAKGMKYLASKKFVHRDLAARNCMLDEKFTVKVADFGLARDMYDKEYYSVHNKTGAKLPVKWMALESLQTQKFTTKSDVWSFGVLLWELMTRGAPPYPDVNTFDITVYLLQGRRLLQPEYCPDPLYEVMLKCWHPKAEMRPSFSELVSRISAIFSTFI
In words: MET Transphosphorylation Assay (ELISA, poly(Glu,Tyr) 4:1 substrate). In kind it is biochemical. As to conditions: met transphosphorylation of poly(glutamic acid:tyrosine 4:1) substrate; two values in a cell separated by '/'. In outline:
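Poly(Glu-Tyr)-coated wells received the GST-Met kinase domain (10 ng/well) with compound in DMSO for 15 minutes. The reaction was started with ATP/MnCl2 in HEPES pH 7.5 buffer with vanadate, run 5 minutes, and stopped with EDTA. Phosphotyrosine was detected by anti-pTyr antibody, HRP secondary and ABTS/H2O2.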
In general, IC50 refers to the concentration that inhibits the measured activity by half. Turning to `O=C(Cc1cccc(O)c1)N/N=C1\C(=O)Nc2ccccc21` [II-30, (3-Hydroxy-phenyl)-acetic acid [(3Z)-2-oxo-1,2-dihydro-indol-3-ylidene]-hydrazide], half-maximal inhibition (IC50) required 1450 nM.

`Cc1ccc(C)c2c1NC(=O)/C2=N\NC(=O)Cc1ccc(O)cc1` [II-31, (4-Hydroxy-phenyl)-acetic acid [(3Z)-4,7-dimethyl-2-oxo-1,2-dihydro-indol-3-ylidene]-hydrazide] registered an IC50 of 15 nM.

`O=C(Cc1ccc(O)cc1)N/N=C1\C(=O)Nc2c(Br)cc(Cl)cc21` [II-32, (4-Hydroxy-phenyl)-acetic acid [(3Z)-7-bromo-5-chloro-2-oxo-1,2-dihydro-indol-3-ylidene]-hydrazide]: the 50% inhibitory concentration (IC50) came to 54 nM.

In the case of `O=C(Cc1ccc(O)cc1)N/N=C1\C(=O)Nc2ccc(Cl)c(Cl)c21` [II-33, (4-Hydroxy-phenyl)-acetic acid [(3Z)-4,5-dichloro-2-oxo-1,2-dihydro-indol-3-ylidene]-hydrazide], the IC50 turned out to be 15 nM.

As for `O=C(Cc1ccc(Br)cc1)N/N=C1\C(=O)Nc2ccccc21` [II-34, (4-Bromo-phenyl)-acetic acid [(3Z)-2-oxo-1,2-dihydro-indol-3-ylidene]-hydrazide], the half-maximal inhibitory concentration (IC50) was > 20000 nM.

Compound `Cc1c(Br)ccc2c1/C(=N/NC(=O)Cc1ccc(O)cc1)C(=O)N2` [II-35, (4-Hydroxy-phenyl)-acetic acid [(3Z)-5-bromo-4-methyl-2-oxo-1,2-dihydro-indol-3-ylidene)-hydrazide] returned an IC50 of 16 nM.

The compound `O=C(Cc1ccc(O)cc1)N/N=C1\C(=O)Nc2c(Cl)cccc21` [II-36, (4-Hydroxy-phenyl)-acetic acid [(3Z)-7-chloro-2-oxo-1,2-dihydro-indol-3-ylidene]-hydrazide] yielded an IC50 of 22 nM.

`O=C(Cc1cc[n+]([O-])cc1)N/N=C1\C(=O)Nc2ccccc21` [II-37, (1-Oxy-pyridin-4-yl)-acetic acid [(3Z)-2-oxo-1,2-dihydro-indol-3-ylidene]-hydrazide] yielded an IC50 of 10800 nM.

`O=C(Cc1ccc(O)cc1)N/N=C1\C(=O)Nc2c(Cl)ccc(Cl)c21` [II-38, (4-Hydroxy-phenyl)-acetic acid [(3Z)-4,7-dichloro-2-oxo-1,2-dihydro-indol-3-ylidene]-hydrazide] had an IC50 of 13 nM.

The compound `O=C(Cc1ccc(O)cc1)N/N=C1\C(=O)Nc2cccc(Cl)c21` [II-39, (4-Hydroxy-phenyl)-acetic acid [(3Z)-4-chloro-2-oxo-1,2-dihydro-indol-3-ylidene]-hydrazide] showed a half-maximal inhibitory concentration (IC50) of 8 nM.

Take `COc1cc(CC(=O)N/N=C2\C(=O)Nc3ccccc32)ccc1O` [II-40, (4-Hydroxy-3-methoxy-phenyl)-acetic acid [(3Z)-2-oxo-1,2-dihydro-indol-3-ylidene]-hydrazide]: half-maximal inhibition (IC50) was put at 240 nM. This IC50 is about 30-fold higher than that of the compound before.

Compound `O=C(Cc1ccc(O)c(O)c1)N/N=C1\C(=O)Nc2ccccc21` [II-41, (3,4-Dihydroxy-phenyl)-acetic acid [(3Z)-2-oxo-1,2-dihydro-indol-3-ylidene]-hydrazide] returned an IC50 of 1770 nM.

As to `O=C(Cc1ccc(O)c(Cl)c1)N/N=C1\C(=O)Nc2ccccc21` [II-42], the IC50 came out at 36 nM.

On to `O=C(Cc1ccc(O)c(F)c1)N/N=C1\C(=O)Nc2ccccc21` [II-43, (3-Fluoro-4-hydroxy-phenyl)-acetic acid [(3Z)-2-oxo-1,2-dihydro-indol-3-ylidene]-hydrazide], for which the IC50 worked out at 54 nM. This IC50 is about 1.5-fold higher than that of the compound before.

In turn, `CC(C(=O)N/N=C1\C(=O)Nc2ccc(Cl)c(Cl)c21)c1ccc(O)cc1` (centres unmarked) [II-44] came in with an IC50 of 22 nM.

As for `COc1ccc(CC(=O)N/N=C2\C(=O)Nc3c(C)ccc(C)c32)cn1` [II-45, (6-Methoxy-pyridin-3-yl)-acetic acid [(3Z)-4,7-dimethyl-2-oxo-1,2-dihydro-indol-3-ylidene]-hydrazide], the IC50 was 110 nM.

The compound `O=C(Cc1ccc(O)c([N+](=O)[O-])c1)N/N=C1\C(=O)Nc2ccccc21` [II-46, (4-Hydroxy-3-nitro-phenyl)-acetic acid [(3Z)-2-oxo-1,2-dihydro-indol-3-ylidene]-hydrazide] had an IC50 of 610 nM.

Turning to `Cc1cccc2c1/C(=N/NC(=O)Cc1ccc(O)cc1)C(=O)N2` [II-47, (4-Hydroxy-phenyl)-acetic acid [(3Z)-4-methyl-2-oxo-1,2-dihydro-indol-3-ylidene]-hydrazide], inhibition was half-maximal at 22 nM (IC50). This IC50 lies about 28-fold lower than the previous one.

Regarding `Cc1ccc(C)c2c1NC(=O)/C2=N\NC(=O)Cc1ccc(O)c(F)c1` [II-49, (3-Fluoro-4-hydroxy-phenyl)-acetic acid [(3Z)-4,7-dimethyl-2-oxo-1,2-dihydro-indol-3-ylidene]-hydrazide], the IC50 is < 9.1 nM.

For the compound `Cc1ccc(C)c2c1NC(=O)/C2=N\NC(=O)Cc1ccc(O)nc1` [II-50, (6-Hydroxy-pyridin-3-yl)-acetic acid [(3Z)-4,7-dimethyl-2-oxo-1,2-dihydro-indol-3-ylidene]-hydrazide], half-maximal inhibition (IC50) was put at 37 nM.

In turn, `O=C(Cc1ccc(O)cc1)N/N=C1\C(=O)Nc2cc(Cl)ccc21` [II-51, (4-Hydroxy-phenyl)-acetic acid [(3Z)-6-chloro-2-oxo-1,2-dihydro-indol-3-ylidene]-hydrazide] showed an IC50 of 17 nM.

Compound `O=C(Cc1ccc(F)cc1)N/N=C1\C(=O)Nc2ccc(Cl)c(Cl)c21` [II-52, (4-Fluoro-phenyl)-acetic acid [(3Z)-4,5-dichloro-2-oxo-1,2-dihydro-indol-3-ylidene]-hydrazide] showed a 50% inhibitory concentration (IC50) of 210 nM.

Compound `Cc1ccc2c(c1Br)/C(=N/NC(=O)Cc1ccc(O)cc1)C(=O)N2` [II-53, (4-Hydroxy-phenyl)-acetic acid [3Z)-(4-bromo-5-methyl-2-oxo-1,2-dihydro-indol-3-ylidene]-hydrazide] had an IC50 of 23 nM.

As for `O=C(Cc1ccc(O)c(Cl)c1)N/N=C1\C(=O)Nc2c(Cl)ccc(Cl)c21` [II-54, (3-Chloro-4-hydroxy-phenyl)-acetic acid [(3Z)-4,7-dichloro-2-oxo-1,2-dihydro-indol-3-ylidene)-hydrazide], the 50% inhibitory concentration (IC50) is < 9 nM.

On to `O=C(Cc1ccc(O)c(F)c1)N/N=C1\C(=O)Nc2c(Cl)ccc(Cl)c21` [II-55, (3-Fluoro-4-hydroxy-phenyl)-acetic acid [(3Z)-4,7-dichloro-2-oxo-1,2-dihydro-indol-3-ylidene]-hydrazide], for which the IC50 is < 9 nM.

Take `O=C(Cc1ccc(O)nc1)N/N=C1\C(=O)Nc2c(Cl)ccc(Cl)c21` [II-56, (6-Hydroxy-pyridin-3-yl)-acetic acid [(3Z)-4,7-dichloro-2-oxo-1,2-dihydro-indol-3-ylidene]-hydrazide]: the IC50 turned out to be 21 nM.

`Cc1ccc(C)c2c1NC(=O)/C2=N\NC(=O)C(C)c1ccc(O)cc1` (centres unmarked) [II-57, 2-(4-Hydroxy-phenyl)-propionic acid [(3Z)-4,7-dimethyl-2-oxo-1,2-dihydro-indol-3-ylidene]-hydrazide] returned a half-inhibitory concentration (IC50) of 16 nM.

`Cc1ccc2c(c1)/C(=N/NC(=O)Cc1ccc(O)cc1)C(=O)N2` [II-58, (4-Hydroxy-phenyl)-acetic acid [(3Z)-5-methyl-2-oxo-1,2-dihydro-indol-3-ylidene]-hydrazide] had an IC50 of 67 nM.

In turn, `Cn1cc(CC(=O)N/N=C2\C(=O)Nc3c(Cl)ccc(Cl)c32)ccc1=O` [II-59, (1-Methyl-6-oxo-1,6-dihydro-pyridin-3-yl)-acetic acid [(3Z)-4,7-dichloro-2-oxo-1,2-dihydro-indol-3-ylidene]-hydrazide] came in with a 50% inhibitory concentration (IC50) of 45 nM. The IC50 values of the last two compounds are within 1.5-fold of each other.

Take `COc1cccc2c1NC(=O)/C2=N\NC(=O)Cc1ccc(O)cc1` [II-60, (4-Hydroxy-phenyl)-acetic acid [(3Z)-7-methoxy-2-oxo-1,2-dihydro-indol-3-ylidene]-hydrazide]: the IC50 came to 65 nM.

Turning to `O=C(Cc1ccc(O)cc1)N/N=C1\C(=O)Nc2c(Cl)cc(Cl)cc21` [II-61, (4-Hydroxy-phenyl)-acetic acid [(3Z)-5,7-dichloro-2-oxo-1,2-dihydro-indol-3-ylidene)-hydrazide], the IC50 was 88 nM.

`O=C(Cc1ccc(O)cc1)N/N=C1\C(=O)Nc2ccc([N+](=O)[O-])cc21` [II-62, (4-Hydroxy-phenyl)-acetic acid [(3Z)-5-nitro-2-oxo-1,2-dihydro-indol-3-ylidene]-hydrazide] had an IC50 of 96 nM.

Take `Cc1cc(Cl)cc2c1NC(=O)/C2=N\NC(=O)Cc1ccc(O)cc1` [II-63, (4-Hydroxy-phenyl)-acetic acid [(3Z)-5-chloro-7-methyl-2-oxo-1,2-dihydro-indol-3-ylidene]hydrazide]: the IC50 is < 9.1 nM.

Regarding `O=C(Cc1ccc(O)c(O)c1)N/N=C1\C(=O)Nc2ccccc21` [II-64, (3,4-Dihydroxy-phenyl)-acetic acid [(3E)-2-oxo-1,2-dihydro-indol-3-ylidene]-hydrazide], the IC50 is > 20000 nM.

In turn, `O=C(Cc1ccncc1)N/N=C1\C(=O)Nc2c(Cl)ccc(Cl)c21` [II-66, Pyridin-4-yl-acetic acid [(3Z)-4,7-dichloro-2-oxo-1,2-dihydro-indol-3-ylidene]-hydrazide] showed an IC50 of 13 nM.

In the case of `O=C(Cc1ccc(F)cc1)N/N=C1\C(=O)Nc2c(Cl)ccc(Cl)c21` [II-67, (4-Fluoro-phenyl)-acetic acid [(3Z)-4,7-dichloro-2-oxo-1,2-dihydro-indol-3-ylidene)-hydrazide], the IC50 was 20 nM.

`CC(C)C(C(=O)N/N=C1\C(=O)Nc2ccccc21)c1ccc(O)cc1` (centres unmarked) [II-68, 2-(4-Hydroxy-phenyl)-3-methyl-butyric acid [(3Z)-2-oxo-1,2-dihydro-indol-3-ylidene)-hydrazide] registered an IC50 of 1450 nM.

Turning to `CC(C)C(C(=O)N/N=C1\C(=O)Nc2c(Cl)ccc(Cl)c21)c1ccc(O)cc1` (centres unmarked) [II-69, 2-(4-Hydroxy-phenyl)-3-methyl-butyric acid [(3Z)-4,7-dichloro-2-oxo-1,2-dihydro-indol-3-ylidene)-hydrazide], 170 nM corresponded to half-maximal inhibition (IC50).
